{
  "source": "PubChem BioAssay (NCI)",
  "experiment_in_all_cases": "NCI anticancer screen, dose series, 48 h",
  "key": {"[1]": {"tested_on": "SF-539 CNS"}, "[2]": {"tested_on": "SK-OV-3 ovarian"}, "[3]": {"tested_on": "HOP-62 NSCLC"}, "[4]": {"tested_on": "UO-31 renal"}, "[5]": {"tested_on": "SNB-19 CNS"}, "[6]": {"tested_on": "SR leukemia"}, "[7]": {"tested_on": "A498 renal"}, "[8]": {"tested_on": "OVCAR-3 ovarian"}, "[9]": {"tested_on": "NCI-H460 lung"}, "[10]": {"tested_on": "HCC-2998 colon"}, "[11]": {"tested_on": "ACHN renal"}, "[12]": {"tested_on": "NCI-H226 lung"}, "[13]": {"tested_on": "SN12C renal"}, "[14]": {"tested_on": "SF-268 CNS"}, "[15]": {"tested_on": "MOLT-4 leukemia"}, "[16]": {"tested_on": "HT29 colon"}, "[17]": {"tested_on": "T-47D breast"}, "[18]": {"tested_on": "SW-620 colon"}, "[19]": {"tested_on": "M14 melanoma"}, "[20]": {"tested_on": "TK-10 renal"}, "[21]": {"tested_on": "HOP-92 NSCLC"}, "[22]": {"tested_on": "RPMI-8226 leukemia"}, "[23]": {"tested_on": "786-0 renal"}, "[24]": {"tested_on": "MDA-MB-435"}, "[25]": {"tested_on": "SK-MEL-2 melanoma"}, "[26]": {"tested_on": "DU-145 prostate"}, "[27]": {"tested_on": "U251 CNS"}, "[28]": {"tested_on": "CAKI-1 renal"}, "[29]": {"tested_on": "NCI-H522 lung"}},
  "note": "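Growth conditions: 96-well plates. Treatment: test compound, 48 hours, 5 concentrations. Analysis: linear interpolation between bracketing concentrations; unreached endpoints set to highest concentration. GI50: concentration for 50% inhibition of growth. TGI marks complete inhibition of growth.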",
  "data": [
    {"compound": "COCc1cc(C(=O)Nc2cc([C@H]3CC[C@@H](OC(=O)NC(C)C)C3)[nH]n2)n(C)n1", "values": [
      {"measurement": "TGI", "setting": "[1]", "value": 43.7, "unit": "µM"},
      {"measurement": "GI50", "setting": "[2]", "value": 28.6, "unit": "µM"},
      {"measurement": "TGI", "setting": "[2]", "value": 96.2, "unit": "µM"},
      {"measurement": "GI50", "setting": "[3]", "value": 8.6, "unit": "µM"},
      {"measurement": "TGI", "setting": "[3]", "value": 88.4, "unit": "µM"},
      {"measurement": "GI50", "setting": "[4]", "value": 16, "unit": "µM"},
      {"measurement": "TGI", "setting": "[4]", "value": 58.6, "unit": "µM"},
      {"measurement": "GI50", "setting": "[5]", "value": 12.7, "unit": "µM"},
      {"measurement": "TGI", "setting": "[5]", "value": "> 100", "unit": "µM"},
      {"measurement": "GI50", "setting": "[6]", "value": 1.32, "unit": "µM"},
      {"measurement": "TGI", "setting": "[6]", "value": 9.9, "unit": "µM"},
      {"measurement": "GI50", "setting": "[7]", "value": 11.4, "unit": "µM"},
      {"measurement": "TGI", "setting": "[7]", "value": 34.5, "unit": "µM"},
      {"measurement": "GI50", "setting": "[8]", "value": 2.55, "unit": "µM"},
      {"measurement": "TGI", "setting": "[8]", "value": 30.6, "unit": "µM"},
      {"measurement": "GI50", "setting": "[9]", "value": 5.64, "unit": "µM"},
      {"measurement": "TGI", "setting": "[9]", "value": "> 100", "unit": "µM"},
      {"measurement": "GI50", "setting": "[10]", "value": 5.39, "unit": "µM"},
      {"measurement": "TGI", "setting": "[10]", "value": 48.2, "unit": "µM"},
      {"measurement": "GI50", "setting": "[11]", "value": 11.1, "unit": "µM"},
      {"measurement": "TGI", "setting": "[11]", "value": "> 100", "unit": "µM"},
      {"measurement": "GI50", "setting": "[12]", "value": 5.63, "unit": "µM"},
      {"measurement": "TGI", "setting": "[12]", "value": 76.5, "unit": "µM"},
      {"measurement": "GI50", "setting": "[13]", "value": 9.58, "unit": "µM"},
      {"measurement": "TGI", "setting": "[13]", "value": "> 100", "unit": "µM"},
      {"measurement": "GI50", "setting": "[14]", "value": 12.1, "unit": "µM"},
      {"measurement": "TGI", "setting": "[14]", "value": 50.5, "unit": "µM"},
      {"measurement": "GI50", "setting": "[15]", "value": 5.34, "unit": "µM"},
      {"measurement": "TGI", "setting": "[15]", "value": 68.1, "unit": "µM"},
      {"measurement": "GI50", "setting": "[16]", "value": 10.3, "unit": "µM"},
      {"measurement": "TGI", "setting": "[16]", "value": 89, "unit": "µM"},
      {"measurement": "GI50", "setting": "[17]", "value": 9.71, "unit": "µM"},
      {"measurement": "TGI", "setting": "[17]", "value": 89, "unit": "µM"},
      {"measurement": "GI50", "setting": "[18]", "value": 4.32, "unit": "µM"},
      {"measurement": "TGI", "setting": "[18]", "value": 74.7, "unit": "µM"},
      {"measurement": "GI50", "setting": "[19]", "value": 12.2, "unit": "µM"},
      {"measurement": "TGI", "setting": "[19]", "value": 40.5, "unit": "µM"},
      {"measurement": "GI50", "setting": "[20]", "value": 19.9, "unit": "µM"},
      {"measurement": "TGI", "setting": "[20]", "value": "> 100", "unit": "µM"},
      {"measurement": "GI50", "setting": "[21]", "value": 8.03, "unit": "µM"},
      {"measurement": "TGI", "setting": "[21]", "value": 36.6, "unit": "µM"},
      {"measurement": "GI50", "setting": "[22]", "value": 14.2, "unit": "µM"},
      {"measurement": "TGI", "setting": "[22]", "value": 47, "unit": "µM"},
      {"measurement": "GI50", "setting": "[23]", "value": 11.2, "unit": "µM"},
      {"measurement": "TGI", "setting": "[23]", "value": "> 100", "unit": "µM"},
      {"measurement": "GI50", "setting": "[24]", "value": 16.1, "unit": "µM"},
      {"measurement": "TGI", "setting": "[24]", "value": "> 100", "unit": "µM"},
      {"measurement": "GI50", "setting": "[25]", "value": 10.6, "unit": "µM"},
      {"measurement": "TGI", "setting": "[25]", "value": 27.2, "unit": "µM"},
      {"measurement": "GI50", "setting": "[26]", "value": 5.13, "unit": "µM"},
      {"measurement": "TGI", "setting": "[26]", "value": "> 100", "unit": "µM"},
      {"measurement": "GI50", "setting": "[27]", "value": 8.94, "unit": "µM"},
      {"measurement": "TGI", "setting": "[27]", "value": "> 100", "unit": "µM"},
      {"measurement": "GI50", "setting": "[28]", "value": 3.64, "unit": "µM"},
      {"measurement": "TGI", "setting": "[28]", "value": 95.3, "unit": "µM"},
      {"measurement": "GI50", "setting": "[29]", "value": 16.2, "unit": "µM"},
      {"measurement": "TGI", "setting": "[29]", "value": 47.2, "unit": "µM"}
    ]}
  ]
}
